Results as given in patent US8592590B2, “Tetrahydrotriazolopyridine compounds as selective MGLU5 receptor potentiators useful for the treatment of schizophrenia” (Eli Lilly and Company, priority 2009, dated 2013).

Columns and labels:
Male Lister hooded rats = assay: Delayed matching to position task (DMTP) in rats, deficit induced by NMDA antagonist SDZ 220,581; format: in vivo, rat
Description: The delayed matching to position task (DMTP) has been used to study working memory in rats. Working memory in this context is the retention and use of information that is available only during an individual trial. The study of compounds which modulate NMDA receptors in DMTP has been used to identify the importance of NMDA receptors in learning and memory. More specifically, studies have shown competitive NMDA antagonists to induce impairment of DMTP in rats. Compounds which show a positive effect in attenuating deficits induced by competitive NMDA antagonists in rats are believed to be useful in treating cognitive disorders in humans.
Male Lister hooded rats are housed in groups of 4 and are maintained on a food-restricted diet and a 12-hour light dark cycle. The experiments are conducted during the same part of the light phase each day.
Standard operant chambers, housed in sound and light attenuating chambers are used. Each chamber comprised a house light, two retractable levers, each with a stimulus light above it. The levers are located either side of a recessed magazine where food pellets are delivered from an automatic pellet dispenser. Start of a session is signaled by onset of the house light, and its permanent offset indicated the end of a session. Experimental sessions are controlled and data is recorded and analyzed.
Sample Phase. A trial begins with a one of the levers extending into the chamber. The stimulus light above the lever is illuminated. If the lever is pressed, it is retracted and the stimulus light extinguished. This initiates the pseudo-randomly selected delay period of 1, 2, 4, 8 or 16 seconds during training or 1, 12, or 32 seconds during test.
Head Entry. After this delay period is complete, animals are required to make a head entry into the food hopper within 10 seconds, if an appropriate response is made both levers are extended into the chamber. If no response is made during this period, the house-light is extinguished and the trial counted as an omission.
Choice Phase. If animals make the appropriate head entry response and the levers extended into the operant chamber, they have 10 seconds which to make their response. A correct response consists of an animal pressing the same lever that is extended into the chamber during the sample phase. This response results in both levers retracting and a single food pellet being delivered into the food hopper. After a 5 second inter-trial interval the next trial begins. Following an incorrect response, (the animal pressing the opposite lever as had been extended during the sample phase), both levers retract and the house-light is extinguished signaling the end of that trial. After a 5 second time out the next trial begins, signaled by onset of the house-light. If the animal fails to respond within 10 second during the choice phase, the levers retract, the house-light extinguishes and the trial is recorded as an omission.
Overall Session. Each session is terminated after 75 trials (15 pseudo-random presentations of each delay period). Animals are trained to a criterion of greater than 70% accuracy over the entire session with less than 10% omissions of responding. After criterion is reached, rats are trained two times a week in a baseline condition and once a week in a test condition.
Test Compounds. A compound of the present invention stock of 1.0 mg/ml is prepared. For example, 18.7 mg of the compound of Example 11 is weighed and suspended in 18.7 ml vehicle (1% high viscocity cmc, 0.25% tween, 0.05% antifoam). A white suspension is formed. Test compound is administered orally, 60 minutes prior to the start of a session, in a volume of 1 ml/kg.
NMDA antagonist stock, 2.0 mg/ml: […] of SDZ 220,581 is weighed and dissolved in 16.73 ml vehicle (0.09 ml 1M NaOH, made up to volume with 5% glucose). A solution is formed and at a pH 6.5 at time of injection. SDZ 220,581 is administered subcutaneously, 30 minutes prior to the start of a session, in a volume of 1 ml/kg. […]

human mGlu5 receptor = molecular target: T1, human mGlu5 receptor (Homo sapiens, UniProt P41594); assay: Functional in vitro activity at human mGlu5 receptor (FLIPR calcium, potentiator mode); format: cell-based; conditions: AV-12 cells expressing human mGlu5, glutamate EC10, relative EC50
T1 construct: expressed in transfected cells
T1 sequence (P41594 21-1212): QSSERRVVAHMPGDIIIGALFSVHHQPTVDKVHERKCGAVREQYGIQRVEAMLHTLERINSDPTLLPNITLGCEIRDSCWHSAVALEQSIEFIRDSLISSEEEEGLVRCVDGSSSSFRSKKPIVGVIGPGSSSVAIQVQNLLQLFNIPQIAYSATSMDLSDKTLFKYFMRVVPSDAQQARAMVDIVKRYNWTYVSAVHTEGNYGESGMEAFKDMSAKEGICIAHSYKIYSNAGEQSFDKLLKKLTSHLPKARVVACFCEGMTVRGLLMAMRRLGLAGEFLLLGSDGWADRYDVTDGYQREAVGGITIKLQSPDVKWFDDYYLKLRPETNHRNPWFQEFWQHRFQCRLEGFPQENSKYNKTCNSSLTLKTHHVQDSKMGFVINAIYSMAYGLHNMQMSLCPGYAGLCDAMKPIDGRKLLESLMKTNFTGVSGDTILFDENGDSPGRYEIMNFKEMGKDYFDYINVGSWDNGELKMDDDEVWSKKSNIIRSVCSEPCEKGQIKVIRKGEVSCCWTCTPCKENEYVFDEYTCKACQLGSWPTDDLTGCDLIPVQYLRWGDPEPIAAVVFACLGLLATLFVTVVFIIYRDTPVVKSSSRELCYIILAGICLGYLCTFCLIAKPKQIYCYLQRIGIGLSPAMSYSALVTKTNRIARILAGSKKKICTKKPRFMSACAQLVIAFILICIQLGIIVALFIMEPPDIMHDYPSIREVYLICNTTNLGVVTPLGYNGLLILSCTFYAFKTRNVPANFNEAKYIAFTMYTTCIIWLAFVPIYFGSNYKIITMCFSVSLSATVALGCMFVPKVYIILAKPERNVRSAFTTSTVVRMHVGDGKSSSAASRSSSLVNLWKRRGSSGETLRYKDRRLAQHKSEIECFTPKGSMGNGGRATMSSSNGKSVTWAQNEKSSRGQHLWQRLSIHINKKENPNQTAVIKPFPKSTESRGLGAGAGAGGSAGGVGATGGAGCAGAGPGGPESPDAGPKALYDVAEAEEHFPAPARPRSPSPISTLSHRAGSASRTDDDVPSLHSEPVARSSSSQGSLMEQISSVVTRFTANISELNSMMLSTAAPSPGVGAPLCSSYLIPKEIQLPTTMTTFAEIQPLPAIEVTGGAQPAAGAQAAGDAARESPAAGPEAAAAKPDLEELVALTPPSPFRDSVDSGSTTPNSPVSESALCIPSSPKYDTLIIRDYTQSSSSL
Experimental: An AV-12 cell line stably expressing the human mGlu5 receptor and co-transfected with the rat glutamate transporter EAAT 1 (Excitatory Amino Acid Transporter 1) are used for these studies (see for example Desai, Burnett, Mayne, Schoepp, Mol. Pharmacol. 48, 648-657, 1995). The cell line is maintained by culturing in Dulbecco's Modified Eagle's Medium (DMEM) with high glucose and pyridoxine hydrochloride supplemented with 5% heat inactivated, dialyzed fetal bovine serum, 1 mM sodium pyruvate, 10 mM HEPES (4-(2-hydroxyethyl)-1-piperazineethanesulfonic acid), 1 mM of L-glutamine, 0.75 mg/ml geneticin and 0.3 mg/ml hygromycin. Sub-confluent cultures are passaged twice per week using 0.25% trypsin-EDTA. […]
Intracellular calcium levels are monitored before and after the addition of compounds using a Fluorometric Imaging Plate Reader (FLIPR, Molecular Devices, Union City, Calif. USA). […] The results are analyzed using (GraphPad® Prism v4, Graphpad Software, LaJolla, Calif., USA) to calculate the concentrations of glutamate needed to induce the EC10 responses.
Compounds are tested in a two-addition FLIPR assay using a 10-point concentration response profile starting at a final concentration of 25 μM (agonist mode) or 12.5 μM (potentiator mode). […] After taking an initial 5-sec fluorescent read on the FLIPR instrument, compound is added to the cell plate (50 ul per well). […]

[1] = Example 11/V: Example 11 1 mg/kg orally 60 min prior, vehicle instead of SDZ

Row | SMILES | Trials Completed (Male Lister hooded rats; Example 11/SDZ: Example 11 1 mg/kg orally 60 min prior plus SDZ 220,581 subcutaneously 30 min prior) | % Accuracy (Male Lister hooded rats; [1]) [%] | % Omissions (Male Lister hooded rats; [1]) [%] | Average Correct latency (Male Lister hooded rats; [1]) [s] | Average Incorrect latency (Male Lister hooded rats; [1]) [s] | Head Entries (Male Lister hooded rats; [1]) | Sample latency (Male Lister hooded rats; [1]) [s] | Trials Completed (Male Lister hooded rats; [1]) | deficits induced by SDZ-220,581 in the delayed matching to position assay of working memory (Male Lister hooded rats; concurrent treatment with 1 mg/kg Example 11) | EC50 (human mGlu5 receptor) [nM]
1 | CC(C)(C)c1nnc2n1CC[C@H](c1nc(-c3ccc(F)cc3)no1)C2 (single isomer, unassigned) [Example 11] | 72 ± 2 | 75.6 ± 1.6 | 1.2 ± 0.4 | 0.94 ± 0.05 | 0.98 ± 0.08 | 2092 ± 83 | 1.84 ± 0.22 | 75 ± 0 | attenuated all deficits | 36 ± 3.5
2 | CC(C)(C)c1nnc2n1CCC(c1nc(-c3ccc(F)cc3)no1)C2 (racemic) [Example 1, 3-tert-butyl-7-[3-(4-fluorophenyl)-1,2,4-oxadiazol-5-yl]-5,6,7,8-tetrahydro[1,2,4]triazolo[4,3-a]pyridine] |  |  |  |  |  |  |  |  |  | 120 ± 47
